Source: patent US9629365B2, “Macrocyclic picolinamides compounds with fungicidal activity” (DOW AGROSCIENCES LLC, priority 2013, dated 2017)
Like-named read-outs stand apart in the source and are kept apart here.

Assays:
[1] = system: Alternaria solani; assay: Tomato Early Blight (ALTESO) fungicidal activity; assay type: in vivo; conditions: 24 h, 1 Day Protectant, tomato plants, read-out: ALTESO Disease Control 1DP
[2] = system: Mycosphaerella graminicola; Anamorph: Septoria tritici; assay: Leaf Blotch of Wheat (SEPTTR) fungicidal activity; assay type: in vivo; conditions: Zymoseptoria tritici; for pest or weed control at 100 ppm: rate 100 ppm (high volume application); for pest or weed control at 121.5 g/ha: rate 121.5 g/H (low volume application)
Protocol: (§1) Technical grades of materials were dissolved in acetone, which were then mixed with nine volumes of water containing 110 ppm Triton X-100. The fungicide solutions were applied onto wheat seedlings using an automated booth sprayer to run-off. All sprayed plants were allowed to air dry prior to further handling. All fungicides were evaluated using the aforementioned method for their activity vs. all target diseases. Wheat leaf blotch and brown rust activity were also evaluated using track spray applications, in which case the fungicides were formulated as EC formulations, containing 0.1% Trycol 5941 in the spray solutions. Wheat plants (variety Yuma) were grown from seed in a greenhouse in 50% mineral soil/50% soil-less Metro mix until the first leaf was fully emerged, with 7-10 seedlings per pot. These plants were inoculated with an aqueous spore suspension of Septoria tritici either prior to or after fungicide treatments. After inoculation the plants were kept in 100% relative humidity (one day in a dark dew chamber followed by two to three days in a lighted dew chamber at 20° C.) to permit spores to germinate and infect the leaf. The plants were then transferred to a greenhouse set at 20° C. for disease to develop. When disease symptoms were fully expressed on the 1st leaves of untreated plants, infection levels were assessed on a scale of 0 to 100 percent disease severity. Percent disease control was calculated using the ratio of disease severity on treated plants relative to untreated plants.

[3] = system: Leptosphaeria nodorum; assay: Wheat Glume Blotch (LEPTNO) fungicidal activity; assay type: in vivo; conditions: Parastagonospora nodorum, 24 h, 1 Day Protectant, read-out: LEPTNO 1DP Disease Control at 100 ppm
Protocol: as §1, with “After inoculation the plants were kept in 100% relative humidity (one day in a dark dew chamber followed by two to three days in a lighted dew chamber at 20° C.) to permit spores to germinate and infect the leaf. The plants were then transferred to a greenhouse set at 20° C. for disease to develop.” left out, “plants. […]” for “plants.”

[4] = system: Uncinula necator; assay: Grape Powdery Mildew (UNCINE) fungicidal activity; assay type: in vivo; conditions: Erysiphe necator, 24 h, 1 Day Protectant, read-out: UNCINE 1DP Disease Control at 100 ppm
[5] = system: Phakopsora pachyrhizi; assay: Asian Soybean Rust (PHAKPA) fungicidal activity; assay type: in vivo; conditions: topical, soybean plants
Protocol: Technical grades of materials were dissolved in acetone, which were then mixed with nine volumes of water containing 0.011% Tween 20. The fungicide solutions were applied onto soybean seedlings using an automated booth sprayer to run-off. All sprayed plants were allowed to air dry prior to further handling.
Soybean plants (variety Williams 82) were grown in soil-less Metro mix, with one plant per pot. Two weeks old seedlings were used for testing. Plants were inoculated either 3 days prior to or 1 day after fungicide treatments. Plants were incubated for 24 h in a dark dew room at 22° C. and 100% RH then transferred to a growth room at 23° C. for disease to develop. Disease severity was assessed on the sprayed leaves.

[6] = system: Magnaporthe grisea; Anamorph: Pyricularia oryzae; assay: whole plant or invertebrate; assay type: in vivo; conditions: 24 h, read-out: PYRIOR 1DP Disease Control at 100 ppm
[7] = system: Rhyncosporium secalis; assay: Barley Scald (RHYNSE) fungicidal activity; assay type: in vivo; conditions: Hordeum vulgare, 24 h, 1 Day Protectant, read-out: RHYNSE 1DP Disease Control at 100 ppm
[8] = system: Erysiphe cichoracearum; assay: Powdery Mildew of Cucumber (ERYSCI) fungicidal activity; assay type: in vivo; conditions: Golovinomyces cichoracearum, topical, 24 h, 1 Day Protectant, cucumber seedlings, read-out: ERYSCI Disease Control 1DP
[9] = system: Glomerella lagenarium; Anamorph: Colletotrichum lagenarium; assay: Cucumber Anthracnose (COLLLA) fungicidal activity; assay type: in vivo; conditions: Colletotrichum orbiculare, 24 h, 1 Day Protectant, cucumber seedlings, read-out: COLLLA Disease Control 1DP
[10] = system: Puccinia triticina; assay: Wheat Brown Rust (PUCCRT) fungicidal activity; assay type: in vivo; conditions: for pest or weed control at 100 ppm: rate 100 ppm (high volume application); for pest or weed control at 121.5 g/ha: rate 121.5 g/H (low volume application)
Protocol: as §1, with “plants. Wheat plants (variety Yuma) were grown from seed in a greenhouse in 50% mineral soil/50% soil-less Metro mix until the first leaf was fully emerged, with 7-10 seedlings per pot. These plants were inoculated with an aqueous spore suspension of Puccinia triticina either prior to or after fungicide treatments. After inoculation the plants were kept in a dark dew room at 22° C. with 100% relative humidity overnight to permit spores to germinate and infect the leaf. The plants were then transferred to a greenhouse set at 24° C. for disease to develop. Fungicide formulation, application and disease assessment followed the procedures as described in the Example A.” for “plants.”

[11] = system: Venturia inaequalis; assay: Apple Scab (VENTIN) fungicidal activity; assay type: in vivo; conditions: 24 h, 1 Day Protectant, read-out: VENTIN 1DP Disease Control at 100 ppm
[12] = system: Blumeria graminis f. Sp. Hordei; assay: Barley Powdery Mildew (ERYSGH) fungicidal activity; assay type: in vivo; conditions: 24 h, 1 Day Protectant, barley seedlings, read-out: ERYSGH Disease Control 1DP
[13] = system: Cercospora beticola; assay: Leaf Spot of Sugar Beets (CERCBE) fungicidal activity; assay type: in vivo; conditions: topical, 24 h, 1 Day Protectant, sugar beet plants, read-out: CERCBE Disease Control 1DP
[14] = 24 h, 1 Day Protectant, read-out: SEPTTR 1DP disease control
[15] = 72 h, 3 Day Curative, read-out: SEPTTR 3DC disease control
[16] = 24 h, 1 Day Protectant, read-out: PUCCRT 1DP disease control
[17] = 72 h, 3 Day Curative, read-out: PUCCRT 3DC disease control

Compound | pest or weed control at 100 ppm [2, 14] [%] | pest or weed control at 121.5 g/ha [2, 14] [%] | pest or weed control at 100 ppm [2, 15] [%] | pest or weed control at 121.5 g/ha [2, 15] [%] | pest or weed control at 100 ppm [10, 16] [%] | pest or weed control at 121.5 g/ha [10, 16] [%] | pest or weed control at 100 ppm [10, 17] [%] | pest or weed control at 121.5 g/ha [10, 17] [%] | also measured
COc1ccnc(C(=O)N[C@H]2CCC[C@H](CCC(C)C)[C@@H](OC(=O)C3CCCC3)[C@H](C)OC2=O)c1OCOC(C)=O [F96] | 80 to 100 | 80 to 100 | 80 to 100 | 80 to 100 | 80 to 100 | 80 to 100 | 80 to 100 | 0 to 80 | pest or weed control at 100 ppm [1]: 80 to 100%; pest or weed control at 100 ppm [3]: 80 to 100%; pest or weed control at 100 ppm [4]: 80 to 100%; pest or weed control at 25 ppm ([5]; 24 h, 1 Day Protectant, read-out: PHAKPA Disease Control 1DP): 80 to 100%; pest or weed control at 25 ppm ([5]; 72 h, 3 Day Curative, read-out: PHAKPA Disease Control 3DC): 0 to 80%; pest or weed control at 100 ppm [6]: 80 to 100%; pest or weed control at 100 ppm [7]: 80 to 100%; pest or weed control at 100 ppm [8]: 80 to 100%; pest or weed control at 100 ppm [9]: 80 to 100%; pest or weed control at 100 ppm [11]: 0 to 80%; pest or weed control at 100 ppm [12]: 0 to 80%; pest or weed control at 100 ppm [13]: 80 to 100%
CO[C@@H]1[C@@H](CCC(C)C)CCC[C@H](N)C(=O)O[C@H]1C.Cl | – | – | – | – | – | – | – | – | melting point: 218 to 220 °C
COc1ccnc(C(=O)N[C@H]2CCC[C@H](Cc3ccc(F)cc3)[C@@H](OCC3CC3)[C@H](C)OC2=O)c1O [F10] | 80 to 100 | 80 to 100 | 80 to 100 | 80 to 100 | 80 to 100 | 80 to 100 | 80 to 100 | 0 to 80 | –
